Laboratory results published in patent US9732075B2, “Benzimidazole-proline derivatives” (IDORSIA PHARMACEUTICALS LTD, priority 2012, dated 2017).

Tests used:
human orexin-2 receptor = human orexin-2 receptor (Homo sapiens (Human), UniProt O43614); experiment: In vitro assay: intracellular calcium measurements (FLIPR), antagonistic activity; format: cell-based; conditions: CHO cells expressing human orexin-2 receptor, orexin-A agonist, geometric mean, read-out: IC50 Ox2
Procedure, shortened: (§1)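 Dye-loaded CHO cells expressing either human orexin receptor are exposed to test antagonist for 120 min, then stimulated with orexin-A at 3 nM.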

human orexin-1 receptor = human orexin-1 receptor (Homo sapiens (Human), UniProt O43613); experiment: as above; format: cell-based; conditions: CHO cells expressing human orexin-1 receptor, orexin-A agonist, geometric mean, read-out: IC50 Ox1
Procedure, shortened: as §1

Chain of human orexin-2 receptor (O43614 whole entry): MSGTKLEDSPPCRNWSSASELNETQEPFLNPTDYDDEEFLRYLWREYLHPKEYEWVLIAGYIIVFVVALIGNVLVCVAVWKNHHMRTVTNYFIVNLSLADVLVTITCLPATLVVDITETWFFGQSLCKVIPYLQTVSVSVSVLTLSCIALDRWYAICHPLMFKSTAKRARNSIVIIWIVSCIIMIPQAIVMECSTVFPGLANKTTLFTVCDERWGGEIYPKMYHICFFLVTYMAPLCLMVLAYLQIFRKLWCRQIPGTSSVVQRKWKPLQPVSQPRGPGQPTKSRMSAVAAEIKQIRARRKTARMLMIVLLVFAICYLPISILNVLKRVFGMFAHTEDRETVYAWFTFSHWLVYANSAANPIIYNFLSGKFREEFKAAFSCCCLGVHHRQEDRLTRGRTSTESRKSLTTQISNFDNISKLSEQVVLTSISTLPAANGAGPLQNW
Chain of human orexin-1 receptor (O43613 whole entry): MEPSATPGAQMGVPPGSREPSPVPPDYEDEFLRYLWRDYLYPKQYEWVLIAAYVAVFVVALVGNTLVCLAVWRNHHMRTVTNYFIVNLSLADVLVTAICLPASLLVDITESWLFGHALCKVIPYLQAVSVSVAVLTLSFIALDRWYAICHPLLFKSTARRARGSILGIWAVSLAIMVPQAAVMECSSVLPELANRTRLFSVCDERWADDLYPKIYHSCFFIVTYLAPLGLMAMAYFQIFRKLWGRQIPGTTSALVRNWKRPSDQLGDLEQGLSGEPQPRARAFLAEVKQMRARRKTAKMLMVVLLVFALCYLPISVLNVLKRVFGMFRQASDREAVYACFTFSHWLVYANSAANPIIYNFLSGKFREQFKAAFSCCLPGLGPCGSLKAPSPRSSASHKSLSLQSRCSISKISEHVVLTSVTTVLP

| Compound | IC50 (human orexin-2 receptor) | IC50 (human orexin-1 receptor) |
| --- | --- | --- |
| Cc1c(Cl)ccc2[nH]c([C@]3(C)CCCN3C(=O)c3cc(F)ccc3-c3ccccc3)nc12 [Ex. 5.218] | 36 nM | 13 nM |
| Cc1c(Cl)ccc2nc([C@]3(C)CCCN3C(=O)c3cc(F)ccc3-c3ccccn3)[nH]c12 [Ex. 5.219] | 72 nM | 19 nM |
| Cc1c(Cl)ccc2nc([C@]3(C)CCCN3C(=O)c3cc(F)ccc3-c3cccnc3)[nH]c12 [Ex. 5.220] | 249 nM | 98 nM |
| Cc1c(Cl)ccc2[nH]c([C@]3(C)CCCN3C(=O)c3c(F)cccc3-c3ccccn3)nc12 [Ex. 5.221] | 83 nM | 19 nM |
| Cc1c(Cl)ccc2[nH]c([C@]3(C)CCCN3C(=O)c3c(F)cccc3-c3ncccn3)nc12 [Ex. 5.222] | 68 nM | 26 nM |
| Cc1ccc(-c2ccccc2)c(C(=O)N2CCC[C@@]2(C)c2nc3c(C)c(Cl)ccc3[nH]2)c1 [Ex. 5.223] | 12 nM | 3 nM |
| Cc1c(Cl)ccc2[nH]c([C@]3(C)CCCN3C(=O)c3cc(F)ccc3-c3ncccn3)nc12 [Ex. 5.224] | 21 nM | 7 nM |
| Cc1c(Cl)ccc2nc([C@]3(C)CCCN3C(=O)c3c(F)cccc3-c3ccccc3)[nH]c12 [Ex. 5.225] | 44 nM | 16 nM |
| Cc1c(Cl)ccc2nc([C@]3(C)CCCN3C(=O)c3nc(-c4ccccc4)sc3-c3ccc(F)cc3)[nH]c12 [Ex. 5.226] | 155 nM | 7 nM |
| Cc1c(Cl)ccc2[nH]c([C@]3(C)CCCN3C(=O)c3nc(-c4ccc(F)cc4)sc3-c3ccc(F)cc3)nc12 [Ex. 5.227] | 521 nM | 20 nM |
| Cc1ccccc1-c1nc(C(=O)N2CCC[C@@]2(C)c2nc3c(C)c(Cl)ccc3[nH]2)c(-c2ccc(F)cc2)s1 [Ex. 5.228] | 2030 nM | 56 nM |
| COc1ccccc1-c1nc(C(=O)N2CCC[C@@]2(C)c2nc3c(C)c(Cl)ccc3[nH]2)c(-c2ccc(F)cc2)s1 [Ex. 5.229] | 858 nM | 54 nM |
| Cc1cccc(-c2nc(C(=O)N3CCC[C@@]3(C)c3nc4c(C)c(Cl)ccc4[nH]3)c(-c3ccc(F)cc3)s2)c1 [Ex. 5.230] | 530 nM | 21 nM |
| COc1cccc(-c2nc(C(=O)N3CCC[C@@]3(C)c3nc4ccc(Cl)c(C)c4[nH]3)c(-c3ccc(F)cc3)s2)c1 [Ex. 5.231] | 135 nM | 15 nM |
| Cc1ccc(-c2nc(C(=O)N3CCC[C@@]3(C)c3nc4c(C)c(Cl)ccc4[nH]3)c(-c3ccc(F)cc3)s2)cc1 [Ex. 5.232] | 2060 nM | 20 nM |
| Cc1c(Cl)ccc2[nH]c([C@]3(C)CCCN3C(=O)c3nc(-c4ccccc4F)sc3-c3ccc(F)cc3)nc12 [Ex. 5.233] | 263 nM | 5 nM |
| Cc1c(Cl)ccc2[nH]c([C@]3(C)CCCN3C(=O)c3nc(-c4cccc(F)c4)sc3-c3ccc(F)cc3)nc12 [Ex. 5.234] | 131 nM | 8 nM |
| Cc1cc(C(=O)N2CCC[C@@]2(C)c2nc3cc(OC(F)(F)F)ccc3[nH]2)c(-n2nccn2)cc1C [Ex. 5.235] | 16.5 nM | 5 nM |
| Cc1ccc(-c2ccccc2)c(C(=O)N2CCC[C@@]2(C)c2nc3cc(OC(F)(F)F)ccc3[nH]2)c1 [Ex. 5.236] | 173 nM | 26 nM |

| Compound | IC50 (human orexin-2 receptor) | IC50 (human orexin-1 receptor) |
| --- | --- | --- |
| COc1ccc(-n2nccn2)c(C(=O)N2CCC[C@@]2(C)c2nc3cc(OC(F)(F)F)ccc3[nH]2)c1 [Ex. 5.237] | 223 nM | 58 nM |
| Cc1ccc(C(=O)N2CCC[C@@]2(C)c2nc3cc(OC(F)(F)F)ccc3[nH]2)c(-n2nccn2)c1 [Ex. 5.238] | 91 nM | 23 nM |
| Cc1ccc(-c2ccccn2)c(C(=O)N2CCC[C@@]2(C)c2nc3cc(OC(F)(F)F)ccc3[nH]2)c1 [Ex. 5.239] | 594 nM | 35 nM |
| Cc1ccc(C(=O)N2CCC[C@@]2(C)c2nc3cc(OC(F)(F)F)ccc3[nH]2)c(-c2ccccn2)c1 [Ex. 5.240] | 232 nM | 38 nM |
| Cc1ccc(C(=O)N2CCC[C@@]2(C)c2nc3cc(OC(F)(F)F)ccc3[nH]2)c(-c2cccnc2)c1 [Ex. 5.241] | 1000 nM | 54 nM |
| Cc1ccc(C(=O)N2CCC[C@@]2(C)c2nc3cc(OC(F)(F)F)ccc3[nH]2)c(-c2ccccc2)c1 [Ex. 5.242] | 401 nM | 56 nM |
| Cc1nc(C(=O)N2CCC[C@@]2(C)c2nc3cc(OC(F)(F)F)ccc3[nH]2)c(-c2ccccc2C)s1 [Ex. 5.243] | 1120 nM | 88 nM |
| Cc1nc(C(=O)N2CCC[C@@]2(C)c2nc3cc(OC(F)(F)F)ccc3[nH]2)c(-c2cccc(Cl)c2Cl)s1 [Ex. 5.244] | 641 nM | 62 nM |
| Cc1nc(C(=O)N2CCC[C@@]2(C)c2nc3cc(OC(F)(F)F)ccc3[nH]2)c(-c2ccc(C)c(C)c2)s1 [Ex. 5.245] | 80 nM | 14 nM |
| Cc1nc(C(=O)N2CCC[C@@]2(C)c2nc3cc(OC(F)(F)F)ccc3[nH]2)c(-c2cc(F)cc(F)c2)s1 [Ex. 5.246] | 533 nM | 28 nM |
| COc1cccc(-c2sc(C)nc2C(=O)N2CCC[C@@]2(C)c2nc3cc(OC(F)(F)F)ccc3[nH]2)c1 [Ex. 5.247] | 136 nM | 10 nM |
| Cc1nc(C(=O)N2CCC[C@@]2(C)c2nc3cc(OC(F)(F)F)ccc3[nH]2)c(-c2ccc(F)cc2)s1 [Ex. 5.248] | 494 nM | 22 nM |
| COc1cccc(C#Cc2ccccc2C(=O)N2CCC[C@@]2(C)c2nc3c(C)cc(Br)cc3[nH]2)c1 [Ex. 5.249] | 53 nM | 38 nM |
| COc1cccc(C#Cc2ccccc2C(=O)N2CCC[C@@]2(C)c2nc3cc(C(F)(F)F)ccc3[nH]2)c1 [Ex. 5.250] | 992 nM | 184 nM |
| Cc1c(Cl)ccc2[nH]c([C@]3(C)CCCN3C(=O)c3nc(-c4cccc(F)c4F)sc3-c3ccc(F)cc3)nc12 [Ex. 5.251] | 774 nM | 13 nM |
| Cc1cc(-c2nc(C(=O)N3CCC[C@@]3(C)c3nc4c(C)c(Cl)ccc4[nH]3)c(-c3ccc(F)cc3)s2)ccc1F [Ex. 5.252] | 1640 nM | 20 nM |
| Cc1ccc(-c2nc(C(=O)N3CCC[C@@]3(C)c3nc4c(C)c(Cl)ccc4[nH]3)c(-c3ccc(F)cc3)s2)c(F)c1 [Ex. 5.253] | 1190 nM | 12 nM |
| Cc1ccc(-c2nc(C(=O)N3CCC[C@@]3(C)c3nc4c(C)c(Cl)ccc4[nH]3)c(-c3ccc(F)cc3)s2)cc1C [Ex. 5.254] | 9270 nM | 39 nM |
| Cc1c(Cl)ccc2[nH]c([C@]3(C)CCCN3C(=O)c3nc(-c4cccc(C#N)c4)sc3-c3ccc(F)cc3)nc12 [Ex. 5.255] | 145 nM | 1 nM |

| Compound | IC50 (human orexin-2 receptor) | IC50 (human orexin-1 receptor) |
| --- | --- | --- |
| Cc1c(Cl)ccc2[nH]c([C@]3(C)CCCN3C(=O)c3nc(-c4ccccc4Cl)sc3-c3ccc(F)cc3)nc12 [Ex. 5.256] | 402 nM | 13 nM |
| Cc1c(Cl)ccc2[nH]c([C@]3(C)CCCN3C(=O)c3nc(-c4cccc(Cl)c4)sc3-c3ccc(F)cc3)nc12 [Ex. 5.257] | 329 nM | 13 nM |
| Cc1ccc(-c2nc(C(=O)N3CCC[C@@]3(C)c3nc4c(C)c(Cl)ccc4[nH]3)c(-c3ccc(F)cc3)s2)cc1Cl [Ex. 5.258] | 6520 nM | 36 nM |
| Cc1cc(F)ccc1-c1nc(C(=O)N2CCC[C@@]2(C)c2nc3c(C)c(Cl)ccc3[nH]2)c(-c2ccc(F)cc2)s1 [Ex. 5.259] | 4660 nM | 29 nM |
| COc1cc(F)ccc1-c1nc(C(=O)N2CCC[C@@]2(C)c2nc3c(C)c(Cl)ccc3[nH]2)c(-c2ccc(F)cc2)s1 [Ex. 5.260] | 2870 nM | 20 nM |
| Cc1c(Cl)ccc2[nH]c([C@]3(C)CCCN3C(=O)c3nc(-c4cc(F)ccc4F)sc3-c3ccc(F)cc3)nc12 [Ex. 5.261] | 466 nM | 4 nM |
| C[C@@]1(c2nc3cc(C(F)(F)F)ccc3[nH]2)CCCN1C(=O)c1cc(Br)ccc1-c1ccccc1 [Ex. 5.262] | 1 nM | 113 nM |
| Cc1cc(C(=O)N2CCC[C@@]2(C)c2nc3c(C)c(Cl)ccc3[nH]2)c(-n2nccn2)cn1 [Ex. 5.263] | 304 nM | 56 nM |
| Cc1cc(C(=O)N2CCC[C@@]2(C)c2nc3c(C)c(Cl)ccc3[nH]2)c(-c2ccccc2)cn1 [Ex. 5.264] | 65 nM | 25 nM |
| C[C@@]1(c2nc3cc(C(F)(F)F)ccc3[nH]2)CCCN1C(=O)c1cc(-c2cccnc2)ccc1-c1ccccc1 [Ex. 5.265] | 32 nM | 9 nM |
| Cc1ccc(-n2nccn2)c(C(=O)N2CCC[C@@]2(C)c2nc3c(C)c(C)c(Br)cc3[nH]2)c1 [Ex. 5.266] | 1 nM | 1 nM |
| Cc1ccc(C(=O)N2CCC[C@@]2(C)c2nc3c(C)c(C)c(Br)cc3[nH]2)c(-n2nccn2)c1C [Ex. 5.267] | 105 nM | 12 nM |
| Cc1c(Br)cc2[nH]c([C@]3(C)CCCN3C(=O)c3ccccc3-c3ccccc3)nc2c1C [Ex. 5.269] | 22 nM | 15 nM |
| Cc1ccc(-c2ccccc2)c(C(=O)N2CCC[C@@]2(C)c2nc3c(C)c(C)c(Br)cc3[nH]2)c1 [Ex. 5.270] | 9 nM | 7 nM |
| Cc1nc(C(=O)N2CCC[C@@]2(C)c2nc3c(C)c(C)c(Br)cc3[nH]2)c(-c2ccccc2C)s1 [Ex. 5.271] | 6 nM | 5 nM |
| Cc1nc(C(=O)N2CCC[C@@]2(C)c2nc3c(C)c(C)c(Br)cc3[nH]2)c(-c2cccc(Cl)c2Cl)s1 [Ex. 5.272] | 12 nM | 8 nM |
| Cc1nc(C(=O)N2CCC[C@@]2(C)c2nc3c(C)c(C)c(Br)cc3[nH]2)c(-c2ccc(C)c(C)c2)s1 [Ex. 5.273] | 12 nM | 7 nM |
| COc1cccc(-c2sc(C)nc2C(=O)N2CCC[C@@]2(C)c2nc3c(C)c(C)c(Br)cc3[nH]2)c1 [Ex. 5.275] | 6 nM | 5 nM |
| Cc1nc(C(=O)N2CCC[C@@]2(C)c2nc3c(C)c(C)c(Br)cc3[nH]2)c(-c2ccc(F)cc2)s1 [Ex. 5.276] | 8 nM | 3 nM |
